In brackets after ≈: the same amount, converted by molar mass. Like-named read-outs stand apart in the source and are kept apart here.
How the values were obtained:
Type in all cases: cell-based
[1] = tested on: Escherichia coli MC4100 harboring the IMP4213 (E. coli IMP); assay: microbe, parasite or virus in culture; conditions: Escherichia coli, 22 h, read-out: MIC (μg/mL) E. coli IMP, E. coli MC4100 IMP4213, increased outer-membrane permeability; 35° C., 22 hours
Summary of the method: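 Broth micro-dilution per CLSI in cation-adjusted Mueller Hinton Broth with 0.002% Tween-80; E. coli MC4100 carries IMP4213, raising outer-membrane permeability. Compounds tested as 2-fold serial dilutions (10 concentrations) from 4 μg/mL (protocol 2) or 0.5 μg/mL (protocol 3); inoculum OD600 0.0005, 35° C for 22 hours.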

[2] = tested on: Escherichia coli ATCC 25922; assay: Minimum inhibitory concentration, broth micro-dilution (CLSI), E. coli; conditions: Escherichia coli, ATCC25922, 22 h, 35° C., 22 hours
[3] = tested on: Methicillin Resistant Staphylococcus aureus strain USA 300, NRS384; assay: Minimum inhibitory concentration, broth micro-dilution (CLSI), S. aureus; conditions: Staphylococcus aureus, MRSA / NRS 384 / USA300, 22 h, 35° C., 22 hours
Summary of the method: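 Colonies grown 20 hours at 35° C were suspended in cation-adjusted Mueller Hinton Broth with 0.002% Tween-80. Cells were then added to 2-fold compound dilutions starting at 4 or 0.5 μg/mL, at OD600 0.0005.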

[4] = E. coli ATCC 25922, read-out: MIC (μg/mL) E. coli
[5] = MRSA USA 300 NRS384, read-out: MIC (μg/mL) S. aureus
[6] = read-out: MIC (μg/mL) E. coli, E. coli ATCC 25922
[7] = read-out: MIC (μg/mL) S. aureus, MRSA USA 300 NRS384

| Structure (SMILES) | MIC [1] [µg/mL] | MIC [2, 4] [µg/mL] | MIC [3, 5] [µg/mL] | MIC [2, 6] [µg/mL] | MIC [3, 7] [µg/mL] |
| --- | --- | --- | --- | --- | --- |
| CCCCc1ccc(C(=O)N[C@H](CCCCN)CC(=O)N(C)[C@@H]2C(=O)N[C@@H](C)C(=O)N[C@H](C(=O)NCC#N)Cc3ccc(OCCN)c(c3)-c3cc2ccc3OCCN)c(C)c1 [Compound 510] | > 4 | > 64 | 1.5 (≈ 1.76 µM) | – | – |
| CCCCc1ccc(C(=O)N[C@@H](CCN)CC(=O)N(C)[C@@H]2C(=O)N[C@@H](C)C(=O)N[C@H](C(=O)NCC#N)Cc3ccc(OCCN)c(c3)-c3cc2ccc3OCCN)c(C)c1 [Compound 511] | 1 (≈ 1.21 µM) | > 64 | 1.5 (≈ 1.82 µM) | – | – |
| CCCCCc1ccc(C(=O)N[C@@H](CCN)CC(=O)N(C)[C@@H]2C(=O)N[C@@H](C)C(=O)N[C@H](C(=O)NCC#N)Cc3ccc(OCCN)c(c3)-c3cc2ccc3OCCN)c(C)c1 [Compound 512] | 0.5 (≈ 0.595 µM) | 64 (≈ 76.2 µM) | 0.38 (≈ 0.452 µM) | – | – |
| CCCCCCc1ccc(C(=O)N[C@@H](CCN)CC(=O)N(C)[C@@H]2C(=O)N[C@@H](C)C(=O)N[C@H](C(=O)NCC#N)Cc3ccc(OCCN)c(c3)-c3cc2ccc3OCCN)c(C)c1 [Compound 513] | 0.13 (≈ 0.152 µM) | 16 (≈ 18.7 µM) | 0.19 (≈ 0.222 µM) | – | – |
| CCCCCCCCCCN(CCC(=O)N[C@@H](CCCCNC(=O)OC(C)(C)C)C(=O)N(C)[C@@H]1C(=O)N[C@@H](C)C(=O)N[C@H](C(=O)O)Cc2ccc(OC(=O)OC(C)(C)C)c(c2)-c2cc1ccc2OC1O[C@H](CO)[C@@H](O)[C@H](O)[C@H]1NC(=O)OC(C)(C)C)C(=O)OC(C)(C)C (stereo partly drawn) [Compound 516] | > 4 | > 64 | 2 (≈ 1.52 µM) | – | – |
| CCCCc1ccc(-c2ccc(C(=O)N[C@@H](CCC(=O)NCC(O)CO)C(=O)N(C)[C@@H]3C(=O)N[C@@H](C)C(=O)N[C@H](C(=O)NCC#N)Cc4ccc(OCCN)c(c4)-c4cc3ccc4OCCN)cc2)cc1 (stereo partly drawn) [Compound 517] | 0.19 (≈ 0.195 µM) | 6 (≈ 6.15 µM) | 0.38 (≈ 0.389 µM) | – | – |
| CCCCCCc1ccc(C(=O)N[C@@H](CCN[C@@H]2[C@@H](O)[C@H](O)[C@@H](CO)O[C@@H]2O)C(=O)N(C)[C@@H]2C(=O)N[C@@H](C)C(=O)N[C@H](C(=O)NCC#N)Cc3ccc(OCCN)c(c3)-c3cc2ccc3OCCN)c(C)c1 [Compound 518] | 0.063 (≈ 0.0629 µM) | – | – | 4 (≈ 3.99 µM) | 0.38 (≈ 0.379 µM) |
| CCCCCCc1ccc(C(=O)N[C@@H](CCN)C(=O)N(C)[C@@H]2C(=O)N[C@@H](C)C(=O)N[C@H](C(=O)NCC#N)Cc3ccc(OCCN)c(c3)-c3cc2ccc3OCCN)c(OCCN)c1 [Compound 519] | 0.25 (≈ 0.282 µM) | 16 (≈ 18.1 µM) | 0.13 (≈ 0.147 µM) | – | – |
| CCCCCCCCCC(=O)N[C@H](CO)C(=O)N1CC(N)C[C@H]1C(=O)N(C)[C@@H]1C(=O)N[C@@H](C)C(=O)N[C@H](C(=O)NCC#N)Cc2ccc(OCCN)c(c2)-c2cc1ccc2OCCN (stereo partly drawn) [Compound 524-1] | 0.19 (≈ 0.213 µM) | – | – | 16 (≈ 18 µM) | 0.22 (≈ 0.247 µM) |
| CCCCCCCCCCNCC(CO)C(=O)N(C)[C@@H]1C(=O)N[C@@H](C)C(=O)N[C@H](C(=O)NCC#N)Cc2ccc(OCCN)c(c2)-c2cc1ccc2OCCN (stereo partly drawn) [Compound 525] | > 4 | > 64 | 1.5 (≈ 1.93 µM) | – | – |
| CCCCCCc1ccc(C(=O)N2CCC(N)C[C@H]2C(=O)N(C)[C@@H]2C(=O)N[C@@H](C)C(=O)N[C@H](C(=O)NCC#N)Cc3ccc(OCCN)c(c3)-c3cc2ccc3OCCN)c(C)c1 (stereo partly drawn) [Compound 526-3] | 0.031 (≈ 0.0358 µM) | 3 (≈ 3.46 µM) | 0.063 (≈ 0.0727 µM) | – | – |
| CCCCCCOc1ccc(N2CCN(c3ccc(C(=O)N[C@@H](CCN)C(=O)N(C)[C@@H]4C(=O)N[C@@H](C)C(=O)N[C@H](C(=O)NCC#N)Cc5ccc(OCCN)c(c5)-c5cc4ccc5OCCN)cc3)CC2)cc1 [Compound 527] | 0.063 (≈ 0.0629 µM) | 4 (≈ 3.99 µM) | 0.063 (≈ 0.0629 µM) | – | – |

— patent US20180327367A1, “MACROCYCLIC BROAD SPECTRUM ANTIBIOTICS” (priority 2015, published 2018)
